In patent publication US20230092890A1, “1, 3, 4-Oxadiazole derivative compounds as histone deacetylase 6 inhibitor, and the pharmaceutical composition comprising the same” (Chong Kun Dang Pharmaceutical Corp., priority 2019, published 2023) one finds IC50 data, which are given here for 17 molecules.

What is called pIC50 is −log10 of the IC50, conventionally taken in molar units.

Assay [1] deals with T1, HDAC1 (Homo sapiens, UniProt Q13547).
T1 construct: purchased Enzolifesciences BML-AK511
Kind of assay: HDAC enzyme activity inhibition (in vitro), HDAC1 Fluorimetric Drug Discovery Assay Kit. The assay is classed as biochemical. As to conditions: samples at 100, 1000 and 10000 nM; 37° C. 60 minutes; fluorescence Ex 390, Em 460; read-out: HDAC1 IC50. The protocol: <Experimental Example 1> Identification of HDAC Enzyme Activity Inhibition (In Vitro)
A selective HDAC6 inhibitor is important for selectivity of HDAC1 inhibition, which is a cause of side effects, and thus HDAC1/6 enzyme selectivity and cell selectivity (HDAC1: histone acetylation/HDAC6: tubulin acetylation) were identified.
A HDAC enzyme inhibitory capacity of a test material was measured by using HDAC1 Fluorimetric Drug Discovery Assay Kit (Enzolifesciences: BML-AK511) and HDAC6 human recombinant (Calbiochem: 382180). For a HDAC1 assay, samples were treated at a concentration of 100, 1000 and 10000 nM. For a HDAC6 assay, samples were treated at a concentration of 0.1, 1, 10, 100 and 1000 nM. After the above sample treatment, a reaction was continued at 37° C. for 60 minutes, then treated with a developer, and then subjected to a reaction at 37° C. for 30 minutes, after which fluorescence intensity (Ex 390, Em 460) was measured by using FlexStatin3 (Molecular device).

The target in assay [2] is T2, HDAC6 human recombinant (Homo sapiens, UniProt Q9UBN7).
T2 construct: purchased Calbiochem 382180
T2 sequence (Q9UBN7 1-1215): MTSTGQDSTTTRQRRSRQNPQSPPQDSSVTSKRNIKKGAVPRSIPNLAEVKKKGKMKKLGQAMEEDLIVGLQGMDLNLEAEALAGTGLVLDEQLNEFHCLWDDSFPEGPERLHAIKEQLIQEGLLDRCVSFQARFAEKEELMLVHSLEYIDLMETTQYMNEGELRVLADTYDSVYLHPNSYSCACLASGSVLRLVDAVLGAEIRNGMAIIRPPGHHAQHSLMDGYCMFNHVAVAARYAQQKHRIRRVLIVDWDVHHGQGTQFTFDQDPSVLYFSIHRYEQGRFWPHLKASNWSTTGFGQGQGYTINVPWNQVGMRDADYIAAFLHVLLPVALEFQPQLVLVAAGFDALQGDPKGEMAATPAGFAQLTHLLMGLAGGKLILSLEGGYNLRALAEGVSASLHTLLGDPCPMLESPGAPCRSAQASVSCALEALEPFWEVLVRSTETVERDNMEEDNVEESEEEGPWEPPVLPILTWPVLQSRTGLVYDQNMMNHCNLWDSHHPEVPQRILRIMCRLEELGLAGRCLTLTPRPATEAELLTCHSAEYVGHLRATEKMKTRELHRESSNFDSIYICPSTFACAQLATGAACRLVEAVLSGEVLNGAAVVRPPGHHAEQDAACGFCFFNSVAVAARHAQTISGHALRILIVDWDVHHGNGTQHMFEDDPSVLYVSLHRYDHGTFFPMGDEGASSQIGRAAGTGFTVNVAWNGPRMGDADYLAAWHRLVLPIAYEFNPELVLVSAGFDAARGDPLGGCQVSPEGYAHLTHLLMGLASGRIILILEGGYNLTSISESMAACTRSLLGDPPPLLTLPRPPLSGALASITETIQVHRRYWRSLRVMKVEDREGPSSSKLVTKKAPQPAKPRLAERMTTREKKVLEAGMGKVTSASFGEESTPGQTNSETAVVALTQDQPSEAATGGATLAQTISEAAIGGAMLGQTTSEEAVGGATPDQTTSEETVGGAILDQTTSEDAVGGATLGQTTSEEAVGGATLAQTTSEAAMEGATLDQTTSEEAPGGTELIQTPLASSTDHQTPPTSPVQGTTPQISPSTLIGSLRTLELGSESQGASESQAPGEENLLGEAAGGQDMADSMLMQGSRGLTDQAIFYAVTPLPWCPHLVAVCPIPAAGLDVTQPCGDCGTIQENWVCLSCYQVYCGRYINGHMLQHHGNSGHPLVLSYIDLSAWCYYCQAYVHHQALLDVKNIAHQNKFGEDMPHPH
Kind of assay: HDAC enzyme activity inhibition (in vitro), HDAC6 assay. The assay is classed as biochemical. As to conditions: samples at 0.1, 1, 10, 100 and 1000 nM; 37° C. 60 minutes; fluorescence Ex 390, Em 460; read-out: HDAC6 IC50. As to the method:
A HDAC enzyme inhibitory capacity of a test material was measured by using HDAC1 Fluorimetric Drug Discovery Assay Kit (Enzolifesciences: BML-AK511) and HDAC6 human recombinant (Calbiochem: 382180). For a HDAC1 assay, samples were treated at a concentration of 100, 1000 and 10000 nM. […] After the above sample treatment, a reaction was continued at 37° C. for 60 minutes, then treated with a developer, and then subjected to a reaction at 37° C. for 30 minutes, after which fluorescence intensity (Ex 390, Em 460) was measured by using FlexStatin3 (Molecular device).

Molecules are shown by their SMILES. pIC50: −log10 of the molar value. Some results are limits rather than exact numbers.

T1 sequence (Q13547 whole entry): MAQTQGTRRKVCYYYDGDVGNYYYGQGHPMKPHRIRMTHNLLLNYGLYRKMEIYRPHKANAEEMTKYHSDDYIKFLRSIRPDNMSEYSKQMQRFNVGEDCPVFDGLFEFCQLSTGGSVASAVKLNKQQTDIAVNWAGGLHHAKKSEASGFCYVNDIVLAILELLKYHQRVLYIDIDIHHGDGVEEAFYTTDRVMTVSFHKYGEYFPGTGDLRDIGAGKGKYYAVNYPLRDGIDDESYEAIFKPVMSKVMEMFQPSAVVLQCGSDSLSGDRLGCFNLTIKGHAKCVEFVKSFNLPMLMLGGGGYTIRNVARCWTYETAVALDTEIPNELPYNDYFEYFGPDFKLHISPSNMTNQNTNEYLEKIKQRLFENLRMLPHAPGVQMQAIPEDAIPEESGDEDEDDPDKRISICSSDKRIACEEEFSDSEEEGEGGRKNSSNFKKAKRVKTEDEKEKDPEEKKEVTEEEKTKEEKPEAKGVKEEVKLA

Turning to `CN1CCC(N2Cc3ccccc3N(Cc3ccc(-c4nnc(C(F)F)o4)cc3F)C2=O)CC1` [Compound 33, 1-(4-(5-(difluoromethyl)-1,3,4-oxadiazole-2-yl)-2-fluorobenzyl)-3-(1-methylpiperidine-4-yl)-3,4-dihydroquinazoline-2(1H)-one], the pIC50 in assay [1] is less than 5.00; in assay [2], 6.77.

Consider `O=c1n(Cc2ccc(-c3nnc(C(F)F)o3)cc2F)c2ccccc2n1C1CCOCC1` [Compound 34, 1-(4-(5-(difluoromethyl)-1,3,4-oxadiazole-2-yl)-2-fluorobenzyl)-3-(tetrahydro-2H-pyran-4-yl)-1,3-dihydro-2H-benzo[d]imidazole-2-one], for which the pIC50 in assay [1] is less than 5.00; in assay [2], 6.63.

`O=c1n(Cc2ccc(-c3nnc(C(F)F)o3)cc2F)c2ccccc2n1C1CCS(=O)(=O)CC1` [Compound 35, 1-(4-(5-(difluoromethyl)-1,3,4-oxadiazole-2-yl)-2-fluorobenzyl)-3-(1,1-dioxydotetrahydro-2H-thiopyran-4-yl)-1,3-dihydro-2H-benzo[d]imidazole-2-one]: the results for the pIC50 in assay [1] and in assay [2] were less than 5.00 and 6.69, respectively.

For `CN(C)CCn1c(=O)n(Cc2ccc(-c3nnc(C(F)F)o3)cc2F)c2ccccc21` [Compound 36, 1-(4-(5-(difluoromethyl)-1,3,4-oxadiazole-2-yl)-2-fluorobenzyl)-3-(2-(dimethylamino)ethyl)-1,3-dihydro-2H-benzo[d]imidazole-2-one], the pIC50 is less than 5.00 in assay [1] and 6.88 in assay [2].

In the case of `O=c1n(Cc2ccc(-c3nnc(C(F)F)o3)cc2F)c2ccccc2n1C1COC1` [Compound 37, 1-(4-(5-(difluoromethyl)-1,3,4-oxadiazole-2-yl)-2-fluorobenzyl)-3-(oxetan-3-yl)-1,3-dihydro-2H-benzo[d]imidazole-2-one], the results for the pIC50 in assay [1] and in assay [2] were less than 5.00 and 6.80, respectively.

For the molecule `O=c1n(Cc2ccc(-c3nnc(C(F)F)o3)cc2F)c2ccccc2n1CC1CCN(C2COC2)CC1` [Compound 39, 1-(4-(5-(difluoromethyl)-1,3,4-oxadiazole-2-yl)-2-fluorobenzyl)-3-((1-(oxetan-3-yl)piperidine-4-yl)methyl)-1,3-dihydro-2H-benzo[d]imidazole-2-one], the pIC50 in assay [1] was less than 5.00; in assay [2] it was 6.78.

As for `CCN1CCC(n2c(=O)n(Cc3ccc(-c4nnc(C(F)F)o4)cn3)c3ccc(F)cc32)CC1` [Compound 40, 1-((5-(5-(difluoromethyl)-1,3,4-oxadiazole-2-yl)pyridine-2-yl)methyl)-3-(1-ethylpiperidine-4-yl)-5-fluoro-1,3-dihydro-2H-benzo[d]imidazole-2-one], the results for the pIC50 in assay [1] and in assay [2] were less than 5.00 and 6.81, respectively.

In the case of `O=c1n(Cc2ccc(-c3nnc(C(F)F)o3)cn2)c2ccc(F)cc2n1C1CCN(C2COC2)CC1` [Compound 41, 1-((5-(5-(difluoromethyl)-1,3,4-oxadiazole-2-yl)pyridine-2-yl)methyl)-5-fluoro-3-(1-(oxetan-3-yl)piperidine-4-yl)-1,3-dihydro-2H-benzo[d]imidazole-2-one], the pIC50 was less than 5.00 in assay [1] and 7.04 in assay [2].

For the molecule `CC(=O)N1CCC(n2c(=O)n(Cc3ccc(-c4nnc(C(F)F)o4)cn3)c3ccc(F)cc32)CC1` [Compound 42, 3-(1-acetylpiperidine-4-yl)-1-((5-(5-(difluoromethyl)-1,3,4-oxadiazole-2-yl)pyridine-2-yl)methyl)-5-fluoro-1,3-dihydro-2H-benzo[d]imidazole-2-one], the negative-log IC50 (pIC50) in assay [1] was less than 5.00; in assay [2], 6.97.

In the case of `CN1CCC(n2c(=O)n(Cc3ccc(-c4nnc(C(F)F)o4)cn3)c3ccc(F)cc32)CC1` [Compound 43, 1-((5-(5-(difluoromethyl)-1,3,4-oxadiazole-2-yl)pyridine-2-yl)methyl)-5-fluoro-3-(1-methylpiperidine-4-yl)-1,3-dihydro-2H-benzo[d]imidazole-2-one], the pIC50 in assay [1] is less than 5.00; in assay [2], 6.92.

`O=c1n(Cc2ccc(-c3nnc(C(F)F)o3)cn2)c2ccc(F)cc2n1C1CCN(C2CCOCC2)CC1` [Compound 44, 1-((5-(5-(difluoromethyl)-1,3,4-oxadiazole-2-yl)pyridine-2-yl)methyl)-5-fluoro-3-(1-(tetrahydro-2H-pyran-4-yl)piperidine-4-yl)-1,3-dihydro-2H-benzo[d]imidazole-2-one]: the pIC50 in assay [1] was less than 5.00; in assay [2] it was 7.12.

As to `O=c1n(Cc2ccc(-c3nnc(C(F)F)o3)cn2)c2ccc(F)cc2n1C1CCN(C2CCC2)CC1` [Compound 45, 3-(1-cyclobutylpiperidine-4-yl)-1-((5-(5-(difluoromethyl)-1,3,4-oxadiazole-2-yl)pyridine-2-yl)methyl)-5-fluoro-1,3-dihydro-2H-benzo[d]imidazole-2-one], the negative logarithm of the IC50 (pIC50) in assay [1] is less than 5.00; in assay [2], 6.92.

In the case of `CC(C)N1CCC(n2c(=O)n(Cc3ccc(-c4nnc(C(F)F)o4)cn3)c3ccc(F)cc32)CC1` [Compound 46, 1-((5-(5-(difluoromethyl)-1,3,4-oxadiazole-2-yl)pyridine-2-yl)methyl)-5-fluoro-3-(1-isopropylpiperidine-4-yl)-1,3-dihydro-2H-benzo[d]imidazole-2-one], the pIC50 was less than 5.00 in assay [1] and 6.99 in assay [2].

For the molecule `O=c1n(Cc2ccc(-c3nnc(C(F)F)o3)cn2)c2ccc(F)cc2n1C1CCN(C2CCCCC2)CC1` [Compound 47, 3-(1-cyclohexylpiperidine-4-yl)-1-((5-(5-(difluoromethyl)-1,3,4-oxadiazole-2-yl)pyridine-2-yl)methyl)-5-fluoro-1,3-dihydro-2H-benzo[d]imidazole-2-one], the pIC50 is less than 5.00 in assay [1] and 6.90 in assay [2].

`CN1CCC(n2c(=O)n(Cc3ccc(-c4nnc(C(F)F)o4)cn3)c3cc(F)ccc32)CC1` [Compound 48, 3-((5-(5-(difluoromethyl)-1,3,4-oxadiazole-2-yl)pyridine-2-yl)methyl)-5-fluoro-1-(1-methylpiperidine-4-yl)-1,3-dihydro-2H-benzo[d]imidazole-2-one]: the results for the pIC50 in assay [1] and in assay [2] were less than 5.00 and 7.66, respectively.

With `O=c1n(Cc2ccc(-c3nnc(C(F)F)o3)cn2)c2cc(F)ccc2n1C1CCN(C2CC3(COC3)C2)CC1` [Compound 49, 1-(1-(2-oxaspiro[3.3]heptane-6-yl)piperidine-4-yl)-3-((5-(5-(difluoromethyl)-1,3,4-oxadiazole-2-yl)pyridine-2-yl)methyl)-5-fluoro-1,3-dihydro-2H-benzo[d]imidazole-2-one], the pIC50 in assay [1] is less than 5.00; in assay [2] it was 7.46.

In the case of `CCN1CCC(n2c(=O)n(Cc3ccc(-c4nnc(C(F)F)o4)cn3)c3cc(F)ccc32)CC1` [Compound 50, 3-((5-(5-(difluoromethyl)-1,3,4-oxadiazole-2-yl)pyridine-2-yl)methyl)-1-(1-ethylpiperidine-4-yl)-5-fluoro-1,3-dihydro-2H-benzo[d]imidazole-2-one], the negative logarithm of the IC50 (pIC50) in assay [1] was less than 5.00; in assay [2], 7.41.
